In patent US7297794B2, “Phenoxy amine compounds and compositions for delivering active agents” (Emisphere Technologies, Inc., priority 2001, dated 2007):
Several values for one entry are separate records, joined by “and”; a condition that tells them apart may be missing. Identical values can stand only once. Counter-ions that a name gives are not always drawn.

Columns and labels:
[1] = Insulin - Oral Delivery (glucose levels in serum after oral dosing of delivery agent compound with human zinc insulin); format: in vivo, Male Sprague-Dawley rats; conditions: rat, delivery agent compound 200 mg/kg + insulin 0.5 mg/kg, volume dose 2 ml/kg
Protocol: Oral dosing (PO) compositions of delivery agent compound and human zinc insulin (minimum 26 IU/mg available from Calbiochem-Novabiochem Corp, La Jolla, Calif.) were prepared in deionized water. Typically, 500 mg of delivery agent compound was added to 1.5 ml of water. The solution was vortexed, then heated (about 37° C.) and sonicated. The pH was adjusted to about 7 to 8.5 with NaOH or HCl. Additional NaOH was added, if necessary, to achieve uniform solubility, and the pH re-adjusted to about 7 to 8.5. Water was then added to bring the total volume to about 2.4 ml and vortexed. About 1.25 mg insulin from an insulin stock solution ([…] made from 0.5409 g insulin and 18 ml deionized water, adjusting with HCl and NaOH to pH 8.15 and to obtain a clear solution using […]) was added to the solution and mixed by inverting. The solution may be used in the dosing protocol immediately, or alternatively, the solution may be placed into a 37° C. water bath for one hour prior to dosing. The final delivery agent compound dose, insulin dose and dose volume amounts are listed below in Table 1.
The typical dosing and sampling protocols were as follows. […] A dosing group of five animals was administered one of the dosing solutions. […] The dosing solution was administered by pressing the syringe plunger.

[2] = Oral BIBN4096BS Delivery (peak BIBN4096BS concentration after oral gavage with delivery agent compound); conditions: rat, delivery agent compound 200 mg/kg + BIBN4096BS 25 mg/kg, 1 ml/kg
Protocol: Oral gavage (PO) dosing solutions of delivery agent compound and the calcitonin gene-related peptide antagonist, 1-piperidinecarboxamide, N-[2-[[5-amino-1-[[4-(4-pyridinyl)-1-piperazinyl)carbonyl]pentyl]amino]-1-[(3,5-dibromo-4-hydroxyphenyl)methyl]-2-oxoethyl]-4(1,4-dihydro-2-oxo-3(2H0-quinazolinyl)-. [R—(R*,S*)]- (BIBN4096BS) in water were prepared. […] The final dosing solutions were prepared by mixing the delivery agent compound with a BIBN4096BS stock solution and diluting to the desired volume (usually 1.0 mL). If necessary, the pH of the mixture was adjusted by the addition of aliquots of aqueous hydrochloric acid solution of an appropriate normality until the final pH of the dissolved delivery agent compound was below 7.0. The final compound amounts per dose were 25 mg/kg of BIBN4096BS and 200 mg/kg of delivery agent compound in a total volume of 1 mL/kg.
The typical dosing and sampling protocols were as follows. Male Sprague-Dawley rats weighing between 200-250 g were fasted for 24 hours and administered ketamine (44 mg/kg) and chlorpromazine (1.5 mg/kg) 15 minutes prior to dosing. A dosing group of five rats was administered one of the dosing solutions. […] Plasma BIBN4096BS concentrations were quantified by using a liquid chromatography/mass spectrometry/mass spectrometry assay method using UV detection. […]

| Molecule | Glucose Levels in Serum (% change from baseline ± SD) [1] | melting point [°C] | Mean Peak Serum ± sd ng/ml (BIBN4096BS) [2] |
| --- | --- | --- | --- |
| 4-(4-(2-hydroxyphenoxy)butyl)morpholinium Citrate [Compound 7] | −11.7 ± 3.4% |  |  |
| Oc1ccccc1OCCCCCCCCN1CCOCC1 (as salt: salt) [Compound 1, 4-8-(2-hydroxyphenoxy) octylmorpholine] |  | 137 to 139 |  |
| CS(=O)(=O)O.Oc1ccccc1OCCCCCCCCN1CCOCC1 [1 (Mesylate), (4-(8-(2-hydroxyphenoxy)octyl)morpholine)mesylate] |  |  | 408 ± 340 ng/mL and 608 ± 552 ng/mL |
| Oc1ccccc1OCCCCCCCCN1CCOCC1 [Compound 1, 4-8-(2-hydroxyphenoxy) octylmorpholine] | −5.9 ± 4.6% and 0.3 ± 8.2% |  |  |
| OCCN(CCO)CCCCCCCCOc1ccccc1O [Compound 2, 8-(2-hydroxyphenoxy) octyldiethanolamine) citrate] | −10.8 ± 6.8% |  |  |
| Oc1ccccc1OCCCCCCCN1CCOCC1 [Compound 3, 7-(4-(2hydroxyphenoxy)heptylmorpholinium citrate] | −9.8 ± 4% |  |  |
| Oc1ccc(OCCCCCCN2CCOCC2)cc1 [Compound 4] | −2.3 ± 10.6% |  |  |
| NCCCCCCCCOc1ccc(O)cc1 [Compound 6, 8-(4-hydroxyphenoxy)octanamine] | 6.4 ± 17.1% |  |  |
| CC(=O)c1ccccc1OCCCCCCN(C)C.Cl [Compound 8, 6-(2-acetylphenoxy)-1-dimethylaminohexane hydrochloride] | −8.2 ± 9.5% | 138 to 141 |  |
